{
  "source": "ChEMBL document CHEMBL1133076",
  "about": "“The design, synthesis and activity of non-ATP competitive inhibitors of pp60(c-src) tyrosine kinase. Part 1: hydroxynaphthalene derivatives” (Bioorg Med Chem Lett, 2000)",
  "note": "Active and inactive are the calls of the source.",
  "data": [
    {"biological_target": "T1, Proto-oncogene tyrosine-protein kinase Src (Homo sapiens, UniProt P12931)", "T1 sequence (P12931 2-536 limits assumed)": "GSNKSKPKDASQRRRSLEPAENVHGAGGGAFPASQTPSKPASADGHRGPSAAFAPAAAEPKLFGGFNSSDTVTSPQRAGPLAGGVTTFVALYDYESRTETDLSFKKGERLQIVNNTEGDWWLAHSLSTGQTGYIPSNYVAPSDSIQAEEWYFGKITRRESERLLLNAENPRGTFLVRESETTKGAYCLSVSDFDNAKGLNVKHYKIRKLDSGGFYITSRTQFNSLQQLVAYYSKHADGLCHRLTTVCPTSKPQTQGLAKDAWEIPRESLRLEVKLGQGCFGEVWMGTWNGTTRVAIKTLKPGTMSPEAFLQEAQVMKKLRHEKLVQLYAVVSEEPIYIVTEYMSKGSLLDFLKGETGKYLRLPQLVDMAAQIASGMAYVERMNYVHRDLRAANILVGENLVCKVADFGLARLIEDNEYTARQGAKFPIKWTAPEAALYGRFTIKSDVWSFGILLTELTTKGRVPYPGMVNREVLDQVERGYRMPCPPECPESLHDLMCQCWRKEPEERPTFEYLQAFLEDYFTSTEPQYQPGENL", "assay": "Inhibition of human purified recombinant pp60c-src tyrosine kinase", "units": {"IC50": "µM"}, "values": [
      {"smiles": "O=C(Nc1cccc(O)c1)c1cc2cccc(O)c2cc1O", "IC50": 150}
    ]},
    {"biological_target": "T1, Proto-oncogene tyrosine-protein kinase Src", "assay": "Inhibition of human purified recombinant p60 c-Src tyrosine kinase at 100 uM", "units": {"inhibition": "%"}, "values": [
      {"smiles": "Oc1cc(O)cc(/C=C/c2ccc(O)c(O)c2)c1", "inhibition": 41},
      {"smiles": "O=C(NCc1ccc(O)cc1)c1cc2cccc(O)c2cc1O", "inhibition": 49},
      {"smiles": "O=C(NCc1ccccc1O)c1cc2cccc(O)c2cc1O", "inhibition": 41}
    ]},
    {"biological_target": "T1, Proto-oncogene tyrosine-protein kinase Src", "assay": "Inhibition of human purified recombinant pp60c-src tyrosine kinase at 100 uM", "units": {"inhibition": "%"}, "values": [
      {"smiles": "O=C(Nc1cccc(O)c1)c1ccc2cc(O)ccc2c1", "inhibition": 45},
      {"smiles": "Cc1cc(O)c2c(c1)C(=O)c1cc(O)cc(O)c1C2=O", "inhibition": 22},
      {"smiles": "O=C(Nc1cccc(O)c1)c1cc2ccc(O)cc2cc1O", "inhibition": 89},
      {"smiles": "O=C(NCc1ccccc1O)c1cc2ccc(O)cc2cc1O", "inhibition": 42},
      {"smiles": "O=C(Nc1cccc(O)c1)c1cc2cccc(O)c2cc1O", "inhibition": 51},
      {"smiles": "O=C(Nc1ccccc1O)c1cc2ccc(O)cc2cc1O", "inhibition": 39},
      {"smiles": "O=C(Nc1ccc(O)cc1O)c1cc2cccc(O)c2cc1O", "inhibition": 14},
      {"smiles": "COc1ccc(NC(=O)c2cc3cccc(O)c3cc2O)cc1", "inhibition": 35},
      {"smiles": "O=C(Nc1ccc(O)cc1)c1cc2ccc(O)cc2cc1O", "inhibition": 23},
      {"smiles": "O=C(NCc1cccc(O)c1)c1cc2ccc(O)cc2cc1O", "inhibition": 55},
      {"smiles": "COC(=O)c1cc2ccc(O)cc2cc1O", "inhibition": 47},
      {"smiles": "COc1ccc(CNC(=O)c2cc3cccc(O)c3cc2O)cc1", "inhibition": 14},
      {"smiles": "O=C(NCc1ccc(O)cc1)c1cc2ccc(O)cc2cc1O", "inhibition": 42},
      {"smiles": "COc1ccccc1CNC(=O)c1cc2cccc(O)c2cc1O", "inhibition": 13},
      {"smiles": "O=C(Nc1ccccc1O)c1cc2cccc(O)c2cc1O", "inhibition": 12},
      {"smiles": "COc1cccc(NC(=O)c2cc3cccc(O)c3cc2O)c1", "inhibition": 33},
      {"smiles": "COC(=O)c1cc2cccc(O)c2cc1O", "inhibition": 5}
    ]},
    {"biological_target": "T1, Proto-oncogene tyrosine-protein kinase Src", "assay": "nhibition of human purified recombinant pp60c-src tyrosine kinase at 100 uM (Inactive)", "values": [
      {"smiles": "COc1ccccc1CNC(=O)c1cc2ccc(O)cc2cc1O", "inhibition": "inactive"},
      {"smiles": "COC(=O)c1cc2ccccc2cc1N", "inhibition": "inactive"}
    ]}
  ]
}
